This passage reports Kiact and Ki results from ChEMBL document CHEMBL1127766, “Stereochemical approach for enzyme inhibitor design” (Bioorg Med Chem Lett, 1994).

Several values for one entry are separate records, joined by “and”; a condition that tells them apart may be missing. Equal values may be shown once.

The target of assay [1] is Chymotrypsinogen A (Bos taurus) (UniProt P00766).
The next assay deals with Chymotrypsinogen A (Bos taurus, UniProt P00766). Put plainly: Binding affinity against alpha-chymotrypsin.

A word on the Ki: it is a measure of affinity in units of concentration, obtained from inhibition or displacement. In assay [1], `COC(=O)[C@@H](Cc1ccccc1)[C@H]1CO1` gave a Kiact of 5.24 min⁻¹. Besides, the Ki at Chymotrypsinogen A is 9.95 mM and 3.23 mM.
